Values joined by “and” are separate entries in the source; they are usually repeats but may differ in a detail not shown here. Identical values can stand only once.
What was measured:
[1] = tested on: multiple myeloma patients; assay: Bortezomib data analysis: combined Ig expression score (Affymetrix microarray, CD138+ tumor cells, GSE9782) versus response and time-to-progression on single-agent bortezomib or dexamethasone; type: in vivo, human; conditions: bortezomib-treated patients
Excerpt: Publicly available RNA microarray data in tab-delimited text format were downloaded from the Gene Expression Omnibus (GEO ID: GSE9782).
A list of 55 probes from this Affymetrix microarray platform that map to genes encoding immunoglobulin (Ig)-related proteins was obtained from Rody et al. Addition File 5. This example tested for an association between normalized intensity of each of these 55 probes and bortezomib response, which was labeled as “PGx_Responder=R” in the dataset. […] The finding of 13 significant associations is far more than expected by chance (Binomial P-value=2×10^−6). […] It is not surprising that many probes are not associated, given that some map to rarer, patient-specific portions of the Ig loci and that others map to regions that are unusually highly-expressed, and therefore not well-measured with microarray technology (i.e., their fluorescence is likely to be saturated).
Patients were classified as achieving complete response (CR), partial response (PR), minimal response (MR), no change (NC), or progressive disease (PD), using European Group for Bone Marrow Transplantation criteria. In brief, PD requires 25% increase in paraprotein, whereas MR, PR, and CR require at least 25%, 50%, and 100% decreases, respectively.
Various mean IG expression cutoffs were considered to maximize the clinical utility of a potential diagnostic test. Ultimately, a cutoff of 0.29 (defining “IG-High”>=0.29 and “IG-Low”<0.29) was chosen, predicting response in the training data with 71% sensitivity and 62% specificity. This same cutoff was then applied to time-to-progression (TTP) data for these patients, finding that IG-High patients in this cohort have a 1.4-fold longer median TTP than IG-Low patients (8.4 months vs. 6.0 months; log-rank P-value=0.025).

[2] = tested on: multiple myeloma patients; assay: Carfilzomib data analysis: IGH/IGK/IGL and FCGR2B expression (RNA-Seq, FPKQ, CD138+ tumor cells) versus response, cutoffs with % sensitivity/% specificity (ROC) and time-to-progression on single-agent carfilzomib; type: in vivo, human
Experimental: (§1) Bone marrow samples were aspirated from patients enrolled on Onyx-sponsored Phase 2 trials (NCT00511238, NCT00530816, and NCT00721734) prior to treatment with single-agent carfilzomib. Myeloma tumor cells were isolated by EasySep® immunomagnetic bead-based CD138+ selection (StemCell Technologies), re-suspended in TRIzol (Life Technologies) and frozen at […]. RNA was extracted from these samples with the PureLink RNA kit from Life Technologies (Cat #12183018A), following the recommended protocol for cells in TRIzol suspension, including the optional on-column DNase treatment. Elution volumes ranged from 75 μl-30 μl depending on the total number of cells going into isolation. ERCC control sequences from Life Technologies (ERCC ExFold RNA Spike-In Mix; Cat #4456739) were spiked in to all total RNA samples of sufficient quantity (Nanodrop yield>=150 ng) and quality (Bioanalyzer RIN>=7.0). For 500 ng input libraries, 1 μl of a 1:100 dilution of Mix 1 was added to each total RNA sample and for 150 ng input libraries, 3 μl of a 1:1000 dilution of Mix 1 was added to each total RNA sample. The resulting material was used to construct RNA-Seq libraries with Illumina's TruSeq RNA sample prep kit v2 (Cat #RS-122-2001), with PolyA selection included as the first step. Libraries were sequenced on Illumina's HiSeq 2000 with a target of 70 million fragments using 100×100 bp paired-end sequencing to generate 140 million reads per sample and the resulting raw data was QC-ed with metrics implemented in OmicSoft Array Studio v6.1.
(§2) Raw sequence reads were aligned and expression of genes & isoforms were quantified with a customized pipeline also built in Array Studio v6.1 [Jun]. This pipeline accepts Illumina adapter-stripped, paired-end reads that are trimmed at the […] if a base reaches PHRED quality score Q2 or lower. All reads are aligned to the transcriptome, which consists of the RefGene annotation of human hg19 supplemented with the more rich Ig loci annotations available from ENSEMBL. Reads aligned with mismatches and unaligned reads are subsequently aligned to the entire human genome, searching for novel exon junctions. Reads that remain unaligned are then aligned to the newly identified exon junctions. Alignments to the different references are compared and the highest scoring alignment is retained, or in the event of a tie, the transcriptome alignment is preferentially kept. Finally, all transcriptome alignment locations are translated to genomic coordinates to estimate the expected number of mappings per gene/isoform using the EM algorithm [Dempster]. The EM algorithm assigns reads with multiple alignment locations to an isoform by calculating the conditional probability of a read aligning to a specific isoform, given all other alignments. Weighting the total number of aligned reads with this probability yields posterior expected read counts for each transcript. The EM counts are normalized by the length of the genes/isoforms and number of reads in a library to yield FPKM values (Fragments Per Kilobase per Million reads). Between-sample normalization is achieved by 75th quantile normalization, where each sample is scaled by the median of 75th quantiles from all samples to yield quantile-normalized FPKM or “FPKQ” values.
The FPKQ values corresponding to each “gene” of the three Ig loci, IGH (immunoglobulin heavy locus), IGK (immunoglobulin kappa locus) and IGL (immunoglobulin lambda locus), were summed to produce locus-level expression estimates.
Patients with a best overall response of minimal response (MR) or better (i.e., MR, partial response [PR], very good partial response [VGPR] and complete response [CR]) were grouped into a responder category (N=27; abbreviated as “R”) and patients with a best overall response of stable disease (SD) or worse (i.e., SD and progressive disease [PD]) were grouped into a non-responder category (N=33; abbreviated as “NR”). […]

IG expression = IG expression in tumor sample of one patient at screening and on Cycle 1 Day 2 of single-agent carfilzomib (RNA-Seq); type: in vivo, human
Experimental: as §1, §2
To understand, how IG expression changes during treatment with proteasome inhibitors, the data was examined from one patient for which both a screening tumor sample and a sample collected on Cycle 1 Day 2 (C1D2) of treatment with single-agent carfilzomib were available.

[3] = tested on: Line A (high Ig) hybridoma cells; assay: Hybridoma sensitivity to carfilzomib, CellTiter-Glo Luminescent Cell Viability Assay, Line A; type: cell-based; conditions: 72h treatment, viability vs no treatment control, read-out: inhibitory concentration (IC50) on the cells of Line A
Experimental: (§3) The two hybridoma cell lines were tested for sensitivity to carfilzomib. Cells of each of Line A (high Ig) and Line B (low Ig) were treated with various doses (40 nM, 30 nM, 20 nM, 15 nM, l0 nM, 7.5 nM, 5 nM, 3.75 nM and 2.5 nM) of carfilzomib for 72h. The viability of the cells were then measured by CellTiter-Glo® Luminescent Cell Viability Assay (Cat. No. G7570; Promega Corporation) and compared to no treatment control.

[4] = tested on: Line B (low Ig) hybridoma cells; assay: Hybridoma sensitivity to carfilzomib, CellTiter-Glo Luminescent Cell Viability Assay, Line B; type: cell-based; conditions: 72h treatment, viability vs no treatment control
Experimental: as §3

[5] = tested on: high and low Ig-expressing hybridoma cell lines; assay: Drug sensitivity assay on two additional pairs of high and low Ig-expressing hybridoma cell lines; type: cell-based
[6] = FCGR2B cutoffs 75 and 5 combined with IGH-High cutoff 140,000
[7] = Screening vs C1D2, one patient, single-agent carfilzomib
[8] = one patient, tumor sample on Cycle 1 Day 2 of single-agent carfilzomib

## CC(C)C[C@H](NC(=O)[C@H](Cc1ccccc1)NC(=O)c1cnccn1)B(O)O [bortezomib]
[1]; cutoff 0.29, log-rank P-value=0.025
  fold longer median TTP, IG-High vs IG-Low patients: 1.4 fold
[1]; mean IG expression score <0.29
  median TTP (time-to-progression), IG-Low patients: 6.0 months
[1]; mean IG expression score >=0.29
  median TTP (time-to-progression), IG-High patients: 8.4 months

## CC(C)C[C@H](NC(=O)[C@H](CCc1ccccc1)NC(=O)CN1CCOCC1)C(=O)N[C@@H](Cc1ccccc1)C(=O)N[C@@H](CC(C)C)C(=O)[C@@]1(C)CO1 [carfilzomib]
[2]; [6]
  median TTP, IGH+FCGR2B-Negative patients: 1.2 months
  median TTP, IGH+FCGR2B-Positive patients: 8.9 months
[2]; IGH FPKQ <160,000
  median TTP (time to progression), IGH-Low patients: 1.4 months and 1.3 months
[2]; IGH FPKQ >=160,000
  median TTP (time to progression), IGH-High patients: 7.6 months and 7.3 months
[2]; log-rank P-value=0.003
  fold longer median TTP, IGH-High vs IGH-Low patients: 6 fold and 5.4 fold
[2]; log-rank P-value=3×10−5
  fold longer median TTP, IGH+FCGR2B-Positive vs IGH+FCGR2B-Negative patients: 7.3 fold
IG expression; [7]
  Fold-Change of expression, gene ICKV3-20: 4.11
  Fold-Change of expression, gene IGHA1: 3.37
  Fold-Change of expression, gene IGHV3-30: 3.63
  Fold-Change of expression, gene IGHV3-33: 3.77
  Fold-Change of expression, gene IGKC: 3.88
IG expression; one patient, screening vs C1D2
  IG expression lower in the sample collected one day after the first dose: 3- to 4 fold
IG expression; [8]
  Expression C1D2, gene ICKV3-20: 9.6E+04
  Expression C1D2, gene IGHA1: 1.3E+05
  Expression C1D2, gene IGHV3-30: 2.4E+04
  Expression C1D2, gene IGHV3-33: 2.1E+04
  Expression C1D2, gene IGKC: 1.4E+05
[3]
  IC50: 10.4 nM
[4]
  IC50: 24.3 nM
[5]
  sensitivity of high Ig-expressing hybridoma lines relative to low Ig-expressing lines: greater sensitivity

Source: patent US10870889B2, “Immunoglobulin expression levels as biomarker for proteasome inhibitor response” (Onyx Therapeutics, Inc., priority 2013, dated 2020)
